Experiment [1] concerns the target T1, muscarinic receptors, cortex (M1) (Rattus norvegicus, UniProt P08482).
T1 construct: After removing the heart, submandible and cerebral cortex; from tissue; host or cells: Sprague-Dawley rat cerebral cortex homogenate
T1 sequence (P08482 1-460): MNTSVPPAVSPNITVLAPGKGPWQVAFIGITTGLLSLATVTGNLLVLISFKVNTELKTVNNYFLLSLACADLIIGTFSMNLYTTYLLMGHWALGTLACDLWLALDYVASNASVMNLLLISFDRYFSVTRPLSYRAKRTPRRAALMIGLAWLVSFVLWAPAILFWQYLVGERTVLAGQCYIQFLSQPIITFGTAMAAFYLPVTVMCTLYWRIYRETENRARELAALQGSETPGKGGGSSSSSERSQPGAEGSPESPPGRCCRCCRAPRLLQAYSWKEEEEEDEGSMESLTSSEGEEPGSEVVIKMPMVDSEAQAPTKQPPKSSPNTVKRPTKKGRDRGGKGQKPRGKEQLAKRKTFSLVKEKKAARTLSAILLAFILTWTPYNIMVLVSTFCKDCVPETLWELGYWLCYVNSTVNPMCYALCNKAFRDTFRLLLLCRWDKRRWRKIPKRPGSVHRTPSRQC
Kind of experiment: Receptor binding test in vitro, 3H-pirenzepine, cerebral cortex (M1). Further details: species or system Sprague-Dawley rat. As to conditions: for IC50: 1 nanomolar 3H-pirenzepine, rat cerebral cortex homogenate, 30° C., 45 minutes, pH 7.4, read-out: IC50 3H-PZ Cortex (M1); for M1-selectivity in receptor binding studies (in words): cortex M1 compared to heart and submandible. The procedure: (§1) Sprague-Dawley rats having body weights of 180-220 g were used as organ donors. After removing the heart, submandible and cerebral cortex, all further steps were carried out in ice-cold Hepes-HCl buffer (pH 7.4; 100 m molar NaCl, 10 m molar MgCl2). The entire heart was comminuted using a pair of scissors. All organs were then homogenised in a Potter.
(§2) For the binding test, the organ homogenates were diluted in the following manner(ratio by volume):
(§3) The incubation of the organ homogenates was carried out at a defined concentration of the radioligand and a number of concentrations of the non-radioactive test substances in Eppendorf centrifuge tubes at 30° C. The incubation period was 45 minutes. 0.3 nanomolar ^3 H-N-methylscopolamine (^3 H-NMS, heart and submandible) or 1 nanomolar ^3 H-pirenzepine (^3 H-PZ, cerebrum) were used as the radioligand. The incubation was ended by addition of ice-cold buffer with subsequent vacuum filtration. The filter was washed with cold buffer and its radioactivity was determined. This represents the total of specific and non-specific binding of ^3 H-NMS or ^3 H-PZ. The proportion of non-specific binding was defined as that radioactivity which was bound in the presence of 1μ molar quinuclidinylbenzylate. Four-fold determinations were always carried out. The IC50 values of non-labelled test substances were determined graphically. They represent that concentration of the test substance at which the specific binding of ^3 H-NMS or ^3 H-PZ to the muscarinic receptors in the various organs was inhibited by 50%.

In experiment [2] the test system is effect of acetylcholine on heart rate. Kind of experiment: Inhibition of the effect of acetylcholine on the heart rate (ECG), anaesthetised guinea-pigs. Type of experiment: in vivo. The conditions noted are these: Cavia porcellus, iv, 5 min, anaesthetised guinea-pig, 10 μg/kg acetylcholine i.v. and intraarterially 5 minutes after test substance, read-out: -log DE50 Heart (converted). The procedure: (§4) 5 minutes after administration of the test substance to anaesthetised guinea-pigs, 10 μg/kg of acetylcholine was injected intravenously and, at the same time, intraarterially. At the same time, the heart rate was recorded by extracorporeal derivation of the ECG, the respiratory passage resistance by Konzett-Rossler and the contraction of the exposed bladder directly. For the inhibition of the effect of acetylcholine on the organs examined, dosage-activity curves were recorded and -log ED50 values were determined therefrom.

Experiment [3] deals with T2, muscarinic receptors, submandible (M3) (Rattus norvegicus, UniProt P08483).
T2 construct: After removing the heart, submandible and cerebral cortex; from tissue; host or cells: Sprague-Dawley rat submandibular gland ('submandible') homogenate
The experiment in a line: Receptor binding test in vitro, 3H-N-methylscopolamine, submandible (M3). Further details: species or system Sprague-Dawley rat. The conditions noted are these: 0.3 nanomolar 3H-N-methylscopolamine, rat submandible homogenate, 30° C., 45 minutes, pH 7.4; read-out: IC50 3H-NMS Submandible (M3). The procedure: as §1, §2, §3

For experiment [4], the target named is T3, muscarinic receptors, heart (M2) (Rattus norvegicus, UniProt P10980).
T3 construct: After removing the heart, submandible and cerebral cortex; from tissue; host or cells: Sprague-Dawley rat entire heart homogenate
T3 sequence (P10980 1-466): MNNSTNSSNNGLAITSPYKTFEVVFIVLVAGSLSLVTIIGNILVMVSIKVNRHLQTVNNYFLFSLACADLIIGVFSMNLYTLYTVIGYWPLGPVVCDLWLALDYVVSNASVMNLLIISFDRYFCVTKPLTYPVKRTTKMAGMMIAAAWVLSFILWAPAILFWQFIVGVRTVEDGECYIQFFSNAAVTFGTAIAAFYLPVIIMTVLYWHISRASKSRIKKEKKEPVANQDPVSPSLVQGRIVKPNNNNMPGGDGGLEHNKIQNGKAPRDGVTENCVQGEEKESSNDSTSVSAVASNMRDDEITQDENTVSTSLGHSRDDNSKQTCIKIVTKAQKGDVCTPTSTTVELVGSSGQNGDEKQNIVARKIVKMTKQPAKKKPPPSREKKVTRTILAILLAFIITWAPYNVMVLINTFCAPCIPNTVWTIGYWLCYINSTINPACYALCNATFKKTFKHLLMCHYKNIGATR
The experiment in a line: Receptor binding test in vitro, 3H-N-methylscopolamine, heart (M2). Further details: species or system Sprague-Dawley rat. As for the experimental part:
as §1, §2, §3

The test system of experiment [5] is effect of acetylcholine on bladder. Kind of experiment: Inhibition of the effect of acetylcholine on the bladder (contraction of the exposed bladder), anaesthetised guinea-pigs. It is filed as in vivo. As to conditions: Cavia porcellus, iv, 5 min; anaesthetised guinea-pig; 10 μg/kg acetylcholine i.v. and intraarterially 5 minutes after test substance; read-out: -log DE50 Bladder (converted). As for the experimental part:
as §4

Experiment [6] concerns effect of acetylcholine on bronchi. Kind of experiment: Inhibition of the effect of acetylcholine on the bronchi (respiratory passage resistance, Konzett-Rossler), anaesthetised guinea-pigs. Type of experiment: in vivo, guinea-pig. The conditions noted are these: for ED50: Cavia porcellus, iv, 5 min, read-out: -log DE50 Bronchi; for selectivity of inhibition of acetylcholine-induced bronchoconstriction versus effects on heart and bladder (in words): bronchi compared to heart and bladder, guinea-pig. The procedure:
as §4

The record followed here is patent publication US5011836A, “Agents for the treatment of acute and chronic obstructive respiratory passage diseases” (Dr. Karl Thomae GmbH, priority 1988, dated 1991).

“Also recorded” adds a separate entry of the source.

T2 sequence (P08483 whole entry): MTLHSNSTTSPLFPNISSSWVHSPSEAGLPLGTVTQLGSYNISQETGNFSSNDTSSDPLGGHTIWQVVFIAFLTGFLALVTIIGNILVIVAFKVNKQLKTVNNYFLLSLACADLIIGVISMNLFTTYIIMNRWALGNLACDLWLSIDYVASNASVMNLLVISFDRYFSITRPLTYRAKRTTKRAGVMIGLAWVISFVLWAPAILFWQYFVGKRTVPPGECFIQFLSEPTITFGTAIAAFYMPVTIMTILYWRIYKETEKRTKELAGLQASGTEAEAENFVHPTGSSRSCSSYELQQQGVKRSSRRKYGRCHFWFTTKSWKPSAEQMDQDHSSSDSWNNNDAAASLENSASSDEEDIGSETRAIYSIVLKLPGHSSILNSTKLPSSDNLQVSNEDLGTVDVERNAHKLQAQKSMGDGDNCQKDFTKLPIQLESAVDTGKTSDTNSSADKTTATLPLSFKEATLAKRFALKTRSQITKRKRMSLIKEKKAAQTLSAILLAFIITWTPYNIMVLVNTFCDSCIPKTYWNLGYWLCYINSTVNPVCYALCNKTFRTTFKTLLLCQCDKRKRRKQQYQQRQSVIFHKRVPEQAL

For `CN1CCC(NC(=O)C2c3ccccc3NC(=O)c3ccccc32)CC1` (racemic) [Substance A, 5,11-dihydro-11-[[(1-methyl-4-piperidinyl)amino]carbonyl]-6H-dibenz[b,e]azepin-6-one], the IC50 in experiment [1] worked out at 6 nM; in experiment [3], 70 nM; in experiment [4] it was 400 nM. For the same compound, the “M1-selectivity in receptor binding studies (in words)” value (from here on “M1-selectivity”) in experiment [1] was “marked M1 -selectivity; also recorded: lower IC50 values for the cortex M1 receptor compared to muscarinic receptors in preparations of the heart and submandible; also recorded: M1 -selectivity in in vitro receptor binding studies”. Further, the ED50 was 0.955 µmol/kg in experiment [2], 0.537 µmol/kg in experiment [5] and 0.055 µmol/kg in experiment [6]. The “selectivity of inhibition of acetylcholine-induced bronchoconstriction versus effects on heart and bladder (in words)” value (“selectivity of inhibition … (in words)” for short) in experiment [6] was “marked selectivity for the inhibition of the bronchoconstriction; also recorded: even at dosages at which no effects on the heart and bladder are observed; also recorded: more strongly inhibit the cholinergically induced bronchoconstriction in functional tests than frequency effects on the heart or the bladder contraction”.

In the case of `CN1CCC(NC(=O)C2c3ccccc3NC(=O)c3ccccc32)CC1` (single isomer, unassigned; (+)) [Substance D, (+)-5,11-dihydro-11-[[(1-methyl-4-piperidinyl)amino]carbonyl]-6H-dibenz[b,e]azepin-6-one], the IC50 in experiment [1] was 3 nM; in experiment [3], 50 nM; in experiment [4] it was 300 nM. In addition, the “M1-selectivity” value in experiment [1] is “marked M1 -selectivity; also recorded: lower IC50 values for the cortex M1 receptor compared to muscarinic receptors in preparations of the heart and submandible; also recorded: M1 -selectivity in in vitro receptor binding studies”. Further, the values for the ED50 in experiment [2], in experiment [5] and in experiment [6] were 0.407 µmol/kg, 0.309 µmol/kg and 0.0331 µmol/kg, respectively. In addition, in experiment [6], the “selectivity of inhibition … (in words)” value is “even at dosages at which no effects on the heart and bladder are observed; also recorded: more strongly inhibit the cholinergically induced bronchoconstriction in functional tests than frequency effects on the heart or the bladder contraction”.

As for `CN1CCN(CC(=O)C2c3ccccc3NC(=O)c3ccccc32)CC1` (racemic) [Substance C, 5,11-dihydro-11-[(4-methyl-1-piperazinyl)acetyl]-6H-dibenz[b,e]azepin-6-one], the IC50 in experiment [1] amounted to 8 nM; in experiment [3], 100 nM; in experiment [4], 800 nM. In addition, the “M1-selectivity” value in experiment [1] is “marked M1 -selectivity; also recorded: lower IC50 values for the cortex M1 receptor compared to muscarinic receptors in preparations of the heart and submandible; also recorded: M1 -selectivity in in vitro receptor binding studies”. For the same compound, the ED50 is 1.78 µmol/kg in experiment [2], 5.37 µmol/kg in experiment [5] and 0.275 µmol/kg in experiment [6]. The “selectivity of inhibition … (in words)” value in experiment [6] was “marked selectivity for the inhibition of the bronchoconstriction; also recorded: even at dosages at which no effects on the heart and bladder are observed; also recorded: more strongly inhibit the cholinergically induced bronchoconstriction in functional tests than frequency effects on the heart or the bladder contraction”.

In the case of `CN1CCC(CC(=O)C2c3ccccc3NC(=O)c3ccccc32)CC1` (racemic) [Substance B, 5,11-dihydro-11-[(1-methyl-4-piperidinyl)acetyl]-6H-dibenz[b,e]azepin-6-one], the IC50 in experiment [1] is 2.5 nM; in experiment [3], 13 nM; in experiment [4], 42 nM. Also, in experiment [1], the “M1-selectivity” value was “marked M1 -selectivity; also recorded: lower IC50 values for the cortex M1 receptor compared to muscarinic receptors in preparations of the heart and submandible; also recorded: M1 -selectivity in in vitro receptor binding studies”. Besides, the ED50 in experiment [2] is 0.851 µmol/kg; in experiment [5], 0.813 µmol/kg; in experiment [6], 0.182 µmol/kg. Also, the “selectivity of inhibition … (in words)” value in experiment [6] is “marked selectivity for the inhibition of the bronchoconstriction; also recorded: even at dosages at which no effects on the heart and bladder are observed; also recorded: more strongly inhibit the cholinergically induced bronchoconstriction in functional tests than frequency effects on the heart or the bladder contraction”.

One may read the IC50 as the point on the concentration scale where inhibition reaches its midpoint.
